According to article PMC9264404 (Toxicology and applied pharmacology, 2021):
Read-outs that look alike come from different tables or passages of the source.

Key:
[1] = cited from earlier work
mice = conditions: cited from earlier work
[2] = test system: hepatic microsomes of mice; conditions: cited from earlier work
[3] = Pharmacokinetics in mice after oral gavage of 15 mg/kg DBC; assay type: in vivo, female B6129SF1/J mice
[4] = Pharmacokinetics in human volunteers after oral microdose of 29 ng [14C]-DBC; assay type: in vivo
[5] = test system: hepatic microsomes of humans; conditions: DBC metabolism, human hepatic microsomes, MM model; cited from earlier work
[6] = average of human volunteers, 29 ng DBC oral
[7] = DBC metabolism, mouse hepatic microsomes, MM model

c1ccc2c(c1)cc1ccc3cccc4c5ccccc5c2c1c34 [DBC, dibenzo[def,p]chrysene]
Peak concentration in blood [1, 6]: 74.8 fM | time of peak concentration in blood [1, 6]: around 1 hr | Eliminated Total (sum of all DBC metabolites excreted in urine) ([1]; volunteer V5, oral dose 25.2 ng): 0.532 ng 14C-DBCeq | Eliminated Total (sum of all DBC metabolites excreted in urine) ([1]; volunteer V6, oral dose 29.8 ng): 0.441 ng 14C-DBCeq | Eliminated Total (sum of all DBC metabolites excreted in urine) ([1]; volunteer V8, oral dose 23.9 ng): 0.285 ng 14C-DBCeq | Eliminated Total (sum of all DBC metabolites excreted in urine) ([1]; volunteer V9, oral dose 28.5 ng): 0.200 ng 14C-DBCeq | Eliminated Total (sum of all DBC metabolites excreted in urine) ([1]; volunteer V10, oral dose 25.6 ng): 0.494 ng 14C-DBCeq | Eliminated Total (sum of all DBC metabolites excreted in urine) ([1]; volunteer V13, oral dose 28.5 ng): 0.263 ng 14C-DBCeq | Peak concentration in blood ([1]; volunteers 8 and 9 (both), 29 ng DBC oral): ~ 100 fM | time of peak concentration in blood ([1]; volunteers 8 and 9, 29 ng DBC oral): 1 to 2 h | transplacental carcinogenicity (mice; B6129F1/J mice, offspring of mothers exposed to DBC): cause T-cell lymphoma, lung adenoma and liver lesions in offspring | potency in producing lung adenomas relative to benzo[a]pyrene (B[a]P) (mice): 100 times | tumors after intraperitoneal exposure (mice; mice exposed intraperitoneally): lung and liver cancer | tumors after dermal exposure (mice; mice, dermal exposure): cause skin tumors | tumors after intramammary exposure (mice; mice, intramammary exposure): promote mammary tumors | Km [2, 7]: 6.63 µM | Vmax [2, 7]: 19.38 nmol/min/mg | DBC metabolism rate, mice compared to humans ([2]; after scaling to body weight to the ¾ power): 3 fold | Peak concentration in blood ([3]; 15 mg/kg DBC oral): around 3.5 μM | concentration in blood at 48 hr post dosing ([3]; 15 mg/kg DBC oral): approximately 0.0075 μM | levels detected in urine ([3]; 15 mg/kg DBC oral): trace levels | time of peak concentration in blood ([3]; 15 mg/kg DBC oral): 3 to 5 h | percent of administered dose absorbed (amount of dose recovered in urine) ([3]; 15 mg/kg oral, used as model parameter): 0.311 | % Excreted ([4]; Average of volunteers, urine): 1.39% | peak concentration relative to peak DBC-11,12-diol concentration [4, 6]: 10 times | % Excreted ([4]; volunteer V5, urine): 2.11% | % Excreted ([4]; volunteer V6, urine): 1.48% | % Excreted ([4]; volunteer V8, urine): 1.20% | % Excreted ([4]; volunteer V9, urine): 0.70% | % Excreted ([4]; volunteer V10, urine): 1.93% | % Excreted ([4]; volunteer V13, urine): 0.92% | Km [5]: 0.915 µM | Vmax [5]: 0.27 nmol/min/mg

Oc1c(O)c(O)c2c(cc3ccc4cccc5c6ccccc6c2c3c45)c1O [DBC-tetrols, dibenzo[def,p]chrysene-11,12,13,14-tetraol]
mean amount in urine relative to conjugated DBC-11,12-diol ([3]; 15 mg/kg DBC oral, 0–16 hr collection interval): 98.9 times
